According to publication PMC6705239 (ACS Omega, 2019):
“Also recorded” adds a separate entry of the source.

Legend:
in vitro = conditions: dog
[1] = system: Influenza A virus H1N1 (H1N1A/Weiss/43); assay: microbe, parasite or virus in culture; assay type: cell-based; conditions: for EC50: 72 h
[2] = system: NA from influenza A virus H1N1; assay type: biochemical
influenza A virus H1N1 = system: influenza A virus H1N1; parameters: species or system SPF KM mice; conditions: mouse, in vivo

SMILES	CC50 (in vitro) [µM]	EC50 ([1]; Influenza A virus, H1N1, MDCK) [µM]	other results
COC1=C(c2ccc(C)cc2)C(=O)OC1(C)OC (stereo not drawn) [Compound 26, 3,4-dimethoxy-4-methyl-2-(p-tolyl) butenolide]	184 ± 5.1	–	–
COC1=C(c2ccc(Cl)cc2)C(=O)OC1(C)C(O)c1ccc(N2CCOCC2)cc1 (stereo not drawn) [Compound 48]	130 ± 8.1	–	–
COC1(C)OC(=O)C(c2ccc(F)cc2)=C1N1CCOCC1 (stereo not drawn) [Compound 57]	776 ± 63.2	14.3 ± 1.7	–
COC1=C(c2ccc(Cl)cc2)C(=O)OC1(C)OC (stereo not drawn) [Compound 24, 2-(4-chlorophenyl)-3,4-dimethoxy-4-methylbutenolide]	98.3 ± 3.5	–	–
COC1=C(c2ccccc2F)C(=O)OC1(C)OC (stereo not drawn) [Compound 29, 2-(2-fluorophenyl)-3,4-dimethoxy-4-methylbutenolide]	204 ± 3.2	–	–
COc1ccc(C2=C(N3CCOCC3)C(C)(OC)OC2=O)cc1 (stereo not drawn) [Compound 37, 2-(4-methoxyphenyl)-4-methoxy-4-methyl-3-morpholinobutenolide]	536 ± 15.1	6.7 ± 1.3	antivirus activity against influenza A H1N1 (in words) [1]: dose-dependent; also recorded: better antivirus activity than positive control ribavirin; inhibition rate of NA activity (in words) [2]: increased in a dose-dependent manner; body temperature after virus infection (influenza A virus H1N1): closed to the control groups; body weight after virus infection (influenza A virus H1N1): kept increasing; gross lesions in lungs (influenza A virus H1N1): less lesion; lung histopathology (H&E staining) (influenza A virus H1N1): less lung inflammation and lesions; viral load / expression of virus gene in lung tissue by qRT-PCR (influenza A virus H1N1): inhibit the expression of the influenza A virus gene in the lung; also recorded: Lower viral loads; also recorded: lower than that of the model group
COC1(C)OC(=O)C(c2ccc(Cl)cc2)=C1N1CCOCC1 (stereo not drawn) [Compound 58]	209 ± 14.1	34.7 ± 5.9	–
COC1=C(c2ccc(Br)cc2)C(=O)OC1(C)OC (stereo not drawn) [Compound 25, 2-(4-bromophenyl)-3,4-dimethoxy-4-methylbutenolide]	266 ± 18.4	61.1 ± 5	IC50 ([1]; Influenza A virus, H1N1, MDCK, read-out: IC50 for inhibiting influenza A virus H1N1): 61 µM
COC1=C(c2ccc(Cl)cc2)C(=O)OC1(C)C(O)c1ccccn1 (stereo not drawn) [Compound 47]	155 ± 6.8	–	–
CCOC(=O)C1=C[C@@H](OC(CC)CC)[C@H](NC(C)=O)[C@@H](N)C1 [Os, Oseltamivir, reference compound]	> 800	0.28 ± 0.05	–
COC1(C)OC(=O)C(c2cccc(F)c2)=C1N1CCOCC1 (stereo not drawn) [Compound 60]	147 ± 8.1	–	–
COC1=C(c2ccc(F)c(F)c2)C(=O)OC1(C)OC (stereo not drawn) [Compound 30, 2-(3,4-difluorophenyl)-3,4-dimethoxy-4-methylbutenolide]	109 ± 7.6	33.4 ± 1	–
COC1=C(c2cccc(F)c2)C(=O)OC1(C)OC (stereo not drawn) [Compound 28, 2-(3-fluorophenyl)-3,4-dimethoxy-4-methylbutenolide]	19.8 ± 1	9.4 ± 0.8	–
NC(=O)c1ncn([C@@H]2O[C@H](CO)[C@@H](O)[C@H]2O)n1 [Ri, Ribavirin, reference compound]	532 ± 20.3	105 ± 51	–
COC1=C(c2ccccc2)C(=O)OC1(C)OC (stereo not drawn) [Compound 22, 3,4-dimethoxy-4-methyl-2-phenylbutenolide]	168 ± 9.7	26.3 ± 4.4	–
COC1=C(c2ccc(Cl)cc2)C(=O)OC1(C)C(O)c1ccc(C)cc1 (stereo not drawn) [Compound 46]	75.2 ± 3.6	–	–
